# From article PMC10967822, “Antimicrobial Indole-3-Carboxamido-Polyamine Conjugates Target Bacterial Membranes and Are Antibiotic Potentiators” (Biomolecules, 2024)
# Values joined by “and” are separate entries in the source; they are usually repeats but may differ in a detail not shown here. Equal entries are not always repeated. Where two headings read alike, the source gives them in different places. Marks after values point to notes of the source that are not given here.
# Columns and labels:
# E. coli ATCC 25922 [1] = test: Erythromycin potentiation against E. coli; type: cell-based, Escherichia coli; settings: erythromycin at 2 µg/mL (2.7 µM); for Erythro/Ec: concentration required to restore erythromycin activity (combination MIC): mean n = 3; for Erythro/Ec fold-change (intrinsic MIC / combination MIC): E. coli
# Excerpt: (§1) These measurements were independently repeated in triplicate.
# S. aureus ATCC 25923 [2] = settings: ref Cadelis et al. [13]; cited from earlier work
# MRSA ATCC 43300 [3] = test system: MRSA ATCC 43300; design: method as in Cadelis et al. [13]; settings: ref Cadelis et al. [13]; cited from earlier work
# P. aeruginosa ATCC 27853 [4] = settings: ref Cadelis et al. [13]; cited from earlier work
# E. coli ATCC 25922 [5] = test system: E. coli ATCC 25922; design: method as in Cadelis et al. [13]; settings: ref Cadelis et al. [13]; cited from earlier work
# [6] = test system: K. pneumoniae ATCC 700603; design: method as in Cadelis et al. [13]; settings: ref Cadelis et al. [13]; cited from earlier work
# A. baumannii ATCC 19606 [7] = test system: A. baumannii ATCC 19606; design: method as in Cadelis et al. [13]; settings: ref Cadelis et al. [13]; cited from earlier work
# C. albicans ATCC 90028 [8] = test system: C. albicans ATCC 90028; design: method as in Cadelis et al. [13]; settings: ref Cadelis et al. [13]; cited from earlier work
# [9] = test system: C. neoformans ATCC 208821; design: method as in Cadelis et al. [13]; settings: ref Cadelis et al. [13]; cited from earlier work
# P. aeruginosa ATCC 27853 [10] = settings: P. aeruginosa ATCC 27853, ref Cadelis et al. [13], cited from earlier work
# [11] = test system: HEK293 human embryonic kidney cells; design: method as in Cadelis et al. [13]; settings: ref Cadelis et al. [13], read-out: Cytotoxicity IC50; cited from earlier work
# human red blood cells [12] = settings: cited from earlier work
# S. aureus ATCC 25923 [13] = test: MIC, broth dilution, S. aureus; type: cell-based, Staphylococcus aureus
# MRSA ATCC 43300 [14] = test: MIC, broth microdilution (CO-ADD), MRSA; type: cell-based, methicillin-resistant S. aureus; settings: Staphylococcus aureus; MRSA ATCC 43300; top dose 32 µg/mL; read-out: MIC MRSA
# P. aeruginosa ATCC 27853 [15] = test: MIC, broth dilution, P. aeruginosa; type: cell-based, Pseudomonas aeruginosa; settings: Pseudomonas aeruginosa, ATCC27853
# E. coli ATCC 25922 [16] = test: MIC, broth dilution, E. coli; type: cell-based, Escherichia coli; settings: Escherichia coli, ATCC25922; E. coli ATCC 25922, 18 h
# A. baumannii ATCC 19606 [17] = test: MIC, broth microdilution (CO-ADD), A. baumannii; type: cell-based, Acinetobacter baumannii; settings: Acinetobacter baumannii, ATCC19606, top dose 32 µg/mL
# C. albicans ATCC 90028 [18] = test: Antifungal MIC (CO-ADD), C. albicans; type: cell-based; settings: Candida albicans, ATCC90028, top dose 32 µg/mL
# How it was run: (§2)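 MIC for C. neoformans determined by OD570–600 following a further 3 h with resazurin (0.006% final), whereas C. albicans was read directly at OD530. Both grown static in YNB broth at 2.5 × 10^3 CFU/mL final inoculum, 35 °C for 36 h, from colonies cultured on YPD agar 3 days at 30 °C.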
# [19] = test system: C. neoformans ATCC 208821; test: Antifungal MIC (CO-ADD), C. neoformans; type: cell-based; settings: Cryptococcus neoformans, ATCC208821, top dose 32 µg/mL
# How it was run: as §2
# P. aeruginosa ATCC 27853 [20] = test: Doxycycline potentiation against P. aeruginosa; type: cell-based, Pseudomonas aeruginosa; settings: doxycycline at 2 µg/mL (4.5 µM); for Dox/Pa fold-change (intrinsic MIC / combination MIC): P. aeruginosa ATCC 27853; for Dox/Pa: concentration required to restore doxycycline activity (combination MIC): P. aeruginosa ATCC 27853, mean n = 3
# Excerpt: as §1
# [21] = Cytotoxicity assay (resazurin); type: cell-based; settings: human, HEK293 cells, mean n = 2
# human red blood cells [22] = test: Hemolytic assay; type: cell-based; settings: 10% hemolytic activity, mean n = 2
# How it was run: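 Compounds were applied to saline-washed human red blood cells at 0.5 × 10^8 cells/mL, 37 °C, 1 h. Lysis was measured by supernatant absorbance at 405 nm, and concentrations giving 10% and 50% haemolysis were obtained by variable-slope curve fitting.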
# S. aureus ATCC 25923 [23] = test: Real-time growth curves, S. aureus; type: cell-based, Staphylococcus aureus
# Protocol: The solutions of the compound at the concentrations of 2, 4, and 16 µg/mL were tested each in triplicate against S. aureus ATCC 25923. Typically, in a 96-well plate were placed 10 µL of 40, 80, and 320 µg/mL stock solutions of compound, as well as 190 µL of 5 × 10^5 CFU/mL of the selected bacterial suspension in brain heart infusion (BHI) broth. Positive controls containing only 200 µL of 5 × 10^5 CFU/mL of the bacterial suspension in BHI and negative controls containing only 200 µL of BHI broth were added. The plate was incubated at 37 °C in a TECAN Spark Reader (Roche Diagnostic, Meylan, France) and the real-time bacterial growth was followed by OD590 nm measurements every 20 min for 18 h.
# P. aeruginosa PAO1 [24] = test: Real-time growth curves, P. aeruginosa; type: cell-based, Pseudomonas aeruginosa
# S. aureus ATCC 25923 [25] = test: ATP efflux (membrane disruption), S. aureus; type: cell-based, Staphylococcus aureus; settings: S. aureus ATCC 25923, single dose 100 µg/mL, relative to squalamine
# Protocol: (§3) A solution of the compound was prepared in twice-distilled water at a fixed concentration of 100 μg/mL. The different Gram-positive suspensions were prepared in MH II broth and were incubated at 37 °C. Then, 90 µL of each bacterial suspension was added to 10 µL of the compound solution and shaken for 20 s in the incubator at 37 °C. Subsequently, 50 µL of Luceferin–Luciferase reagent (Yelen, Marseille, France) was added to the mixture, and the luminescent signal was quantified with an Infinite M200 microplate reader (Tecan, Männedorf, Switzerland) for 6 readings spaced 30 s apart. The ATP concentration was quantified by internal sample addition. Squalamine (100 µg/mL) was used as the positive control to quantify the maximum level of ATP efflux and water as the negative control. This assay was performed in three independent experiments.
# MRSA = test: ATP efflux (membrane disruption), MRSA; type: cell-based, methicillin-resistant S. aureus; settings: single dose 100 µg/mL, relative to squalamine
# Protocol: as §3
# P. aeruginosa PAO1 [26] = test: Nitrocefin hydrolysis assay (outer membrane permeabilization); type: cell-based, Pseudomonas aeruginosa; settings: P. aeruginosa PAO1, top dose 128 µg/mL
# Protocol: Outer membrane permeabilization was measured using nitrocefin as a chromogenic substrate of periplasmic β-lactamase. A total of 10 milliliters of MH broth were inoculated with 0.1 mL of an overnight culture of PAO1 bacteria and grown at 37 °C until the OD600 reached 0.5. The remaining steps were performed at room temperature. The cells were recovered by centrifugation (4000 rpm for 20 min) and washed once in 20 mM potassium phosphate buffer (pH 7.2) containing MgCl2 (1 mM). After a second centrifugation, the pellet was resuspended and adjusted to OD600 of 0.5. Then, 50 µL of the desired compound was added to 100 µL of the cell suspension to obtain a final concentration varying from 3.9 µM to 250 µM. A total of 50 microliters of nitrocefin was then added to obtain a final concentration of 50 µg/mL. Nitrocefin hydrolysis was monitored spectrophotometrically by measuring the increase in absorbance at 490 nm. The assays were performed in 96-well plates using a M200 Pro Tecan (Tecan, Männedorf, Switzerland) spectrophotometer.
# [27] = test system: K. pneumoniae ATCC 700603; test: MIC, broth microdilution (CO-ADD), K. pneumoniae; settings: top dose 32 µg/mL
# [28] = Staphylococcus aureus, ATCC25923, S. aureus ATCC 25923, 18 h, read-out: MIC Sa
# [29] = P. aeruginosa ATCC 27853, 18 h, read-out: MIC Pa
Erythro/Ec: concentration required to restore erythromycin activity (combination MIC) (E. coli ATCC 25922 [1]) [µM],MIC (S. aureus ATCC 25923 [13]; [28]) [µM],MIC (MRSA ATCC 43300 [14]) [µM],MIC (P. aeruginosa ATCC 27853 [15]; [29]) [µM],MIC (E. coli ATCC 25922 [16]) [µM],MIC (A. baumannii ATCC 19606 [17]) [µM],MIC (C. albicans ATCC 90028 [18]) [µM],MIC [19] [µM],Dox/Pa fold-change (intrinsic MIC / combination MIC) (P. aeruginosa ATCC 27853 [20]) [fold],Dox/Pa: concentration required to restore doxycycline activity (combination MIC) (P. aeruginosa ATCC 27853 [20]) [µM],Erythro/Ec fold-change (intrinsic MIC / combination MIC) (E. coli ATCC 25922 [1]) [fold],MIC Kp [27] [µM],Structure (SMILES),IC50 at 20 h [21] [µM],Hemolysis HC10 (human red blood cells [22]) [µM],also measured
100,,,,,,,,,,,,"O=C(NCCCNCCCCNCCCNC(=O)c1c[nH]c2ccc(Br)cc12)c1c[nH]c2ccc(Br)cc12 [Compound 3, α,ω-di-(5-bromoindole-3-carboxamido)spermine]",,,MIC Sa (S. aureus ATCC 25923 [2]): 4.8 ^i µM; MIC MRSA (MRSA ATCC 43300 [3]): 12.4 ^i µM; MIC Pa (P. aeruginosa ATCC 27853 [4]): 200 ^i µM; MIC Ec (E. coli ATCC 25922 [5]): 200 ^i µM; MIC Kp [6]: >50 ^i µM; MIC Ab (A. baumannii ATCC 19606 [7]): >50 ^i µM; MIC Ca (C. albicans ATCC 90028 [8]): 49.5 ^i µM; MIC Cn [9]: 12.4 ^i µM; Dox/Pa: concentration required to restore doxycycline activity (combination MIC) (P. aeruginosa ATCC 27853 [10]; doxycycline at 2 µg/mL (4.5 µM)): 3.125 µM; Dox/Pa fold-change (intrinsic MIC / combination MIC) (P. aeruginosa ATCC 27853 [10]; doxycycline at 2 µg/mL): 64 fold; IC50 [11]: > 50 µM; Hemolysis HC10 (human red blood cells [12]): >50 ^c µM
6.92,2.2,≤ 0.28,71,6.92,≤ 0.28,> 35,≤ 0.28,21,3.46,1,>35,O=C(NCCCNCCCCCCNCCCNC(=O)c1c[nH]c2ccc(Br)cc12)c1c[nH]c2ccc(Br)cc12 [Compound 13b],> 35,>35,"MIC (S. aureus ATCC 25923 [13]; S. aureus ATCC 25923, 18 h, read-out: MIC Sa): 2.2 µM; MIC (S. aureus ATCC 25923 [13]; Staphylococcus aureus, ATCC25923, read-out: MIC S. aureus (microdilution)): 2 µg/mL; MIC (P. aeruginosa ATCC 27853 [15]; read-out: MIC P. aeruginosa (microdilution)): 64 µg/mL; Concentrations giving complete inhibition in real-time growth curves (S. aureus ATCC 25923 [23]; S. aureus ATCC 25923, 18 h): 32 to 2 μg/mL and 35.5 to 2.2 μM; Concentration at which bacterial growth resumed after 2 h (S. aureus ATCC 25923 [23]; S. aureus ATCC 25923, real-time growth): 1 μg/mL and 1.1 μM; Concentration at which bacterial growth resumed after 4 h (P. aeruginosa PAO1 [24]): 35.5 μM and 32 μg/mL; ATP release (membrane disruption) (S. aureus ATCC 25923 [25]): more potent of the two compounds; ATP release (membrane disruption) (MRSA): more potent of the two compounds; Outer membrane disruption (nitrocefin hydrolysis) (P. aeruginosa PAO1 [26]): able to disrupt the outer membrane only at the top dose"
250,> 250,≤ 0.31,250,> 250,> 40,> 40,≤ 0.31,8,31.2,1,>40,Cc1cccc2c(C(=O)NCCCNCCCCCCCCNCCCNC(=O)c3c[nH]c4c(C)cccc34)c[nH]c12 [Compound 18d],> 40,>40,
